# Data: US6291247A, “Methods of screening for factors that disrupt neurotrophin conformation and reduce neurotrophin biological activity” (priority 1996, dated 2001)
# Bridges are numbered along the chain shown (N, C = ends). Where no end group is shown, it is not given here.
# Columns and labels:
# [1] = target: T1, p75^NTR and TrkA (Mus musculus, UniProt P01139); assay: Binding of 125I-NGF to PC12 cells (p75NTR + TrkA); parameters: species or system rat; conditions: 120 min; for Total Binding to PC12 cells: 125I-NGF; for steady-state specific binding of 125I-NGF (0.5 nM) to p75NTR and TrkA: ± SEM
# T1 construct: these cells express both NGF receptor types; endogenous in cells; host or cells: PC12 rat pheochromocytoma cells
# T1 sequence (P01139 122-239): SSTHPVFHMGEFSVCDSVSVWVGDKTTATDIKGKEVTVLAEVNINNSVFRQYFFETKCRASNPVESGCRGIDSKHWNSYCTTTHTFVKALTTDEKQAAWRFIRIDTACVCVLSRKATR
# Procedure: (§1) PC12 cells were grown in RPMI with 10% heat inactivated donor horse serum and 5% fetal calf serum. […] The tubes were incubated for 2 hr at 4° C. and 100 μl aliquots (providing triplicate data points for each sample) were transferred to 400 μl microcentrifuges containing 200 μl of 10% glycerol in HKR. Tubes were centrifuged for 2 minutes at 5,000 rpm, the tip containing the cell pellet cut off and radioactivity bound to the cells was determined.
# [2] = system: T2, p75^NTR and TrkA; assay: Binding of 125I-NGF to PC12 cells (p75NTR + TrkA); parameters: species or system rat; conditions: for Inhibition of 125I-NGF binding: 100 μM, CaEDTA together with Zn2+
# T2 construct: these cells express both NGF receptor types; endogenous in cells; host or cells: PC12 rat pheochromocytoma cells
# T2 sequence (P01139 122-239): as above
# Procedure: as §1
# [3] = target: T3, NGF (Mus musculus, UniProt P01139); assay: NGF protomer crosslinking with BS3 (NGF conformation), metal ions; format: biochemical; conditions: for NGF Protomer Conformation (active/inactive): 100 μM; for NGF monomer crosslinking by BS3: 0.1 nM 125I-NGF, CaEDTA together with Zn2+
# T3 construct: homodimer
# T3 sequence (P01139 122-239): as above
# Procedure: For crosslinking NGF […], 0.4 mM BS^3 was added to the mixture and incubated for 30 minutes at 25° C. […] For CD studies, NGF (50 μg/ml) was dissolved in 50 mM Tris-HCl buffer and spectra recorded using a computer controlled Jasco J-600 spectropolarimeter. Samples were acquired in the absence or presence of Zn^2+ (100 μM) at 22° C. in a 2 mm quartz cell averaged over eight scans. Modification of His residues by DEPC was carried out as previously described, where the molar excess of DEPC added and the extent of reaction was determined by evaluating the loss of binding activity of the modified product.
# [4] = system: PC12 cells; assay: NGF-dependent survival of PC12 cells; format: cell-based, rat; conditions: for Antagonism of NGF-dependent survival: high (1 nM) or low (50 pM) NGF; for NGF-mediated survival of PC12 cells: serum-free, CaEDTA together with Zn2+
# Procedure: (§2) Effects of divalent ions on NGF mediated survival and toxicity was evaluated using a colorimetric assay for the lysosomal enzyme acid phosphatase to determine cell number (Connolly, D. T., Knight, M. B., Harakas, N. K, Wittwer, A. J. & Feder, J. Determination of the number of endothelial cells in culture using an acid phosphatase assay. Anal. Biochem. 152, 136-140 (1986); Ueda, Y., Walsh, E., Nakanishi H. & Yoshida, K. A. colorometric assay method for the evaluation of neurotrophic activity in vitro. Neurosci. Lett. 165, 203-207 (1994)). […] To evaluate toxicity, the cells were seeded and maintained without NGF in RPMI with 10% heat inactivated donor horse serum and 5% fetal calf serum in the presence of additives. Loss in viable cell number was determined and expressed as a percent of control. NGF rescues PC12 cells from cell death in serum-free medium(Greene, L. A. Nerve growth factor prevents the death and stimulates neuronal differentiation of clonal PC12 pheochromocytoma cells in serum-free medium. J. Cell Biol. 78, 747-755 (1978)). NGF-dependent survival was assessed by harvesting PC12 cells in balanced salt solution followed with washing by 4 cycles of suspension and centrifugation in serum-free RPMI prior to seeding in 96 well plates. After incubation with additives, medium was removed from the wells and cells washed once with 200 μl PBS. Buffer containing 0.1M sodium acetate pH 5.5, 0.1% Triton X-100 and 10 mM p-nitrophenyl phosphate (Sigma 104 phosphatase substrate) was added to each well (100 μl). Plates were incubated at 37° C. for 3 hours. The reaction was stopped by the addition of 10 μl/well of 1N sodium hydroxide and the color development measured at 405 nm using a microplate reader. The relationship between cell number and enzyme activity was linear over the range 1000 to 15,000 cells.
# (§3) To explore the ability of other transition metals to influence the biological activities of NGF, a series of cations known to mimic in certain respects the binding of zinc to proteins were tested. […] For this reason these ions were not tested in NGF- dependant growth phenomena. […] As these studies appeared to indicate potentially complex results upon metal ions binding to NGF, a receptor crosslinking system where specific receptor types could be identified was utilized.
# [5] = system: PC12 cells; assay: Toxicity to PC12 cells; format: cell-based, rat; conditions: for Toxicity (PC12 cell viability): 100 μM; for Toxicity to PC12 cells: in presence of serum, up to 100 μM
# Procedure: as §2, §3
# [6] = target: p75^NTR /TrkA (Mus musculus, UniProt P01139); assay: Receptor crosslinking of 125I-NGF with transition metal ions (receptor selectivity); format: binding; conditions: 100 μM
# Sequence of p75^NTR /TrkA (Mus musculus, UniProt P01139) (P01139 122-239): as above
# Sequence of p75^NTR /TrkA (Mus musculus, UniProt P01139) (P07174 30-425 partner): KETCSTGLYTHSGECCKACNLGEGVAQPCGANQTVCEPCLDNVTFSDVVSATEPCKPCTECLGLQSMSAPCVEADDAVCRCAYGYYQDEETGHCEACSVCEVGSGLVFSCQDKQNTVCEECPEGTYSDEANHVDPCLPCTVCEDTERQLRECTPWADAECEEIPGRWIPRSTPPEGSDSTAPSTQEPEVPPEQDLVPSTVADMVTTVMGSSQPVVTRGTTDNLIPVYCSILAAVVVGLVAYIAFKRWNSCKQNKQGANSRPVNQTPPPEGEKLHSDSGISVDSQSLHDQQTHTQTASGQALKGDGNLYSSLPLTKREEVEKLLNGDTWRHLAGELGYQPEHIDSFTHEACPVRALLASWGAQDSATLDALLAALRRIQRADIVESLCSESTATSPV
# Sequence of p75^NTR /TrkA (Mus musculus, UniProt P01139) (P35739 33-799 partner): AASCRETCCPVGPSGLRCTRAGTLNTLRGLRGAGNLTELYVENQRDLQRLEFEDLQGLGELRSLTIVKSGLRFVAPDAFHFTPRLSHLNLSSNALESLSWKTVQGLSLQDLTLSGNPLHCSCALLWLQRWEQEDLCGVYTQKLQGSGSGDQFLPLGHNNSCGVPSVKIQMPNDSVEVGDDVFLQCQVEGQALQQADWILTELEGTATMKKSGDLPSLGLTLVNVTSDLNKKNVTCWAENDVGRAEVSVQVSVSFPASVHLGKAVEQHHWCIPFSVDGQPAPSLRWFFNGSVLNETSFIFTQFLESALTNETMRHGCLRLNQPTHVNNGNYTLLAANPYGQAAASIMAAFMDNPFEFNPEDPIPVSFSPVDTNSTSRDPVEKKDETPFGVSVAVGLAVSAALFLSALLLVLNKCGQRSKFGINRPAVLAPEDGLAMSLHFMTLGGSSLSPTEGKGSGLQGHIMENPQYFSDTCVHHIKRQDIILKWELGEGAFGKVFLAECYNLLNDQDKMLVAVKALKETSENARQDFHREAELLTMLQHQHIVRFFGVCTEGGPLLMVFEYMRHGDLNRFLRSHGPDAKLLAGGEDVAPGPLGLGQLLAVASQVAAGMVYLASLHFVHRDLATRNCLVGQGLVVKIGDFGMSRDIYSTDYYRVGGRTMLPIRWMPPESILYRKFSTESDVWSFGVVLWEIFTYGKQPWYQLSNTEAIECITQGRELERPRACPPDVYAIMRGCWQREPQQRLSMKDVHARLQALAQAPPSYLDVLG
# Procedure: as §3
# [7] = system: p75^NTR /TrkA; assay: as above; format: binding
# Sequence of p75^NTR /TrkA (P01139 122-239): as the sequence (P01139 122-239) above
# Sequence of p75^NTR /TrkA (P07174 30-425 partner): as the sequence (P07174 30-425 partner) above
# Sequence of p75^NTR /TrkA (P35739 33-799 partner): as the sequence (P35739 33-799 partner) above
# Procedure: as §3
# [8] = system: T4, TrkA; assay: Binding of 125I-NGF to TrkA on PC12 cells (p75NTR blocked with BDNF); parameters: species or system rat; conditions: 100 μM CaEDTA with 100 μM Zn2+; 40 nM BDNF; ± SEM; 120 min
# T4 construct: Receptor cross-linking studies were performed on PC12 rat pheochromocytoma cells; endogenous in cells; host or cells: PC12 rat pheochromocytoma cells (ATCC CRL 1721)
# T4 sequence (P01139 122-239): as the sequence (P01139 122-239) above
# Procedure: as §1
# [9] = system: TrkA receptor; assay: NGF-dependent TrkA phosphorylation in PC12 cells, metal ions; format: cell-based, rat; conditions: for NGF-induced TrkA phosphorylation: 100 μM, PC12 cells
# Procedure: Zn^2+ and/or other additives were allowed to equilibrate with NGF for 2 hours at 4° C. prior to addition of cells. PC12 cells were used at 10^6 cells/ml and incubated with 40 pM NGF for 15 minutes at 37° C. At the conclusion of the reaction, cells were washed, lysed in TBS containing 10% glycerol, 1% Triton X-100, 1 mM PMSF, 10 μg/ml aprotinin, 1 μg/ml leupeptin and 500 μM orthovanadate (lysis buffer, 10^8 cells/ml). The cellular debris was removed by centrifugation and the soluble proteins incubated with an anti-TrkA cytoplasmic domain antibody. Antibody complexes were isolated by incubating with immobilized protein G (Pierce Ultralink; 70 μl of a 50% slurry) for 2 hours at 4° C. The solid phase was washed extensively with lysis buffer and the pellet dissolved in SDS sample buffer. Proteins were resolved using 6% SDS PAGE and Western analysis performed with anti-phosphotyrosine 4G10 (UBI) visualized with ECL (Amersham).
# [10] = system: DRG neurons; assay: NGF-mediated neurite outgrowth of DRG neurons, metal ions; format: cell-based, chick; conditions: 100 μM
# Procedure: Dissosiated cells enriched for sensory neurons were prepared from ED8 chick DRG as described (Dostaler, S. M. et al. Characterization of a distinctive motif of the low molecular weight neurotrophin receptor that modulates NGF-mediated neurite growth. Eur. J. Neurosci. 8, 870-879 (1996)). Neurons were seeded at a density of 800-1000 cells/well in Ham's F-12 containing 5% FCS and NGF at 10 pM into wells of Terasaki plates treated with polyysine. The cells were incubated with the indicated additives at 37° C. in a 5% CO2 atmosphere. The cells on the entire lower horizontal surface of the well were scored for neurite growth at 18-20 hours using an inverted microscope fitted with phase contrast optics. A neurite was scored if its caliber from the origin to terminal was constant and its length was equal to or greater than 1.5 cell body diameters. Neurite growth was corrected for background (no NGF).
# [11] = system: PC12 cells; assay: Toxicity to PC12 cells; format: cell-based, rat
# [12] = system: dorsal root ganglion (DRG) neurons; assay: NGF-dependent neurite growth of ED8 chick DRG neurons (FIG. 6, Terasaki plates); format: cell-based; conditions: concentrations of 500 μk (so in the source)
# Procedure: FIG. 6 is a graph showing the ability of R11 to inhibit the activity of NGF in vitro using a biological assay system. […] Dissociated cells enriched for sensory neurons were prepared from embryonic day 8 (ED8) chick dorsal root ganglion (DRG) as described (Sutter et al., J. Biol. Chem. 254: 5972-5982 (1979)). Neurons were seed into wells of Terasaki plates treated sequentially with poly-D-lysine and laminin at a density of 800-1000 cells/well in "synthetic" Dulbecco's modified Eagle medium (Bottenstein et al., Proc. Natl. Acad. Sci. USA 76: 514-517 (1979)) containing 1% fetal calf serum and NGF at […]. The cells were incubated with the additives indicated at 37° C. in a 5% CO2 atmosphere At 18-20 hours, the cells were fixed in 4% formaldehyde in phosphate-buffered saline and scored for neurite growth. The cells on the entire lower horizontal surface of the well were counted using an inverted microscope fitted with phase contrast optics. A neurite was scored if its caliber from origin to terminal was constant and its length was equal to or greater than 1.5 cell body diameters. Neurite growth was corrected for background (no NGF) growth in the presence and absence of peptide.
# Such a profile is not typical of a competitive inhibitor. That is, a different dose response profile would be expected if R11 were simply competing with NGF for binding to a receptor. Neither of the less constrained synthetic Intermediates of R11, i.e., R11 (linear) or R11 (monocyclic), was as effective in blocking NGF-dependent neurite growth concentrations up to 200 μM.
# [13] = target: T3, NGF; assay: Cross-linking of NGF protomers in a cell-free system (Example 6); format: biochemical; conditions: R11 analogues, concentration not given
molecule,measurement,setting,value
[Au+3] [Au^3+],Total Binding to PC12 cells,[1]; 100 μM,107 ± 4 % control
same,Prevention of 125I-NGF binding to PC12 cells,[2],did not show appreciable inhibition
same,NGF Protomer Conformation (active/inactive),[3],active
same,Antagonism of NGF-dependent survival,[4],ability to antagonize the NGF-dependant survival
same,Survival @ 50 pM NGF,"[4]; rat, pc12 cells, 100 µM",0.1 ± 9 % control
same,Survival @ 1 nM NGF,"[4]; rat, pc12 cells, 100 µM",-8 ± 5 % control
same,Toxicity (PC12 cell viability),[5],102 ± 13 % control
same,Receptor Selectivity (p75NTR/TrkA),[6],TrkA only
same,Blocking of NGF binding to TrkA and p75NTR in receptor crosslinking,[7],selective for blocking the binding of NGF to TrkA but did not prevent the binding of NGF to p75^NTR
"O=C([O-])CN(CCN(CC(=O)[O-])CC(=O)[O-])CC(=O)[O-].[Ca+2].[Na+].[Na+] [CaEDTA, reference compound]",steady-state specific binding of 125I-NGF (0.5 nM) to p75NTR and TrkA,[1]; 100 μM CaEDTA with 100 μM Zn2+,78 ± 19 % Control
same,Inhibition of 125I-NGF binding,[2],Inhibitory effects of Zn^2+ could also be prevented
same,steady-state specific binding of 125I-NGF (0.5 nM) to TrkA,[8],87 ± 13 % Control
same,NGF monomer crosslinking by BS3,[3],prevented the Zn^2+ effects
same,NGF-mediated survival of PC12 cells,[4]; 100 μM,reversed
same,NGF-induced TrkA phosphorylation,[9],"Neither Ca^2+, Mg^2+ nor CaEDTA had a significant effect"
same,Reversal of Zn2+ inhibition of TrkA phosphorylation,[9]; CaEDTA 100 μM with Zn2+ 100 μM,reversed by CaEDTA
"[Ca+2] [Ca^2+, reference compound]",steady-state specific binding of 125I-NGF (0.5 nM) to p75NTR and TrkA,[1]; 100 μM,91 ± 7 % Control
same,Inhibition of 125I-NGF binding,[2],neither Ca^2+ nor Mg^2+ displayed significant inhibition
same,NGF monomer crosslinking by BS3,[3],no effect on crosslinking efficiency
same,NGF-induced neurite extension,[10],no effect
same,NGF-mediated survival of PC12 cells,[4]; 100 μM,no effect
same,Toxicity to PC12 cells,[5],not toxic
same,NGF-induced TrkA phosphorylation,[9],not detected
[Cd+2] [Cd^2+],Toxicity (PC12 cell viability),[5],63 ± 10 % control
same,Toxicity to PC12 cells in serum-free conditions,[11],toxic to PC12 cells
[Co+2] [Co^2+],Toxicity (PC12 cell viability),[5],52 ± 14 % control
same,Toxicity to PC12 cells in serum-free conditions,[11],toxic to PC12 cells
[Hg+2] [Hg^2+],Toxicity (PC12 cell viability),[5],3 ± 0.8 % control
same,Toxicity to PC12 cells in serum-free conditions,[11],toxic to PC12 cells
"[Mg+2] [Mg^2+, reference compound]",steady-state specific binding of 125I-NGF (0.5 nM) to p75NTR and TrkA,[1]; 100 μM,88 ± 13 % Control
same,Inhibition of 125I-NGF binding,[2],neither Ca^2+ nor Mg^2+ displayed significant inhibition
same,NGF monomer crosslinking by BS3,[3],no effect on crosslinking efficiency
same,NGF-induced neurite extension,[10],no effect
same,NGF-mediated survival of PC12 cells,[4]; 100 μM,no effect
same,Toxicity to PC12 cells,[5],not toxic
same,NGF-induced TrkA phosphorylation,[9],not detected
[Ni+2] [Ni^2+],Total Binding to PC12 cells,[1]; 100 μM,69 ± 18 % control
same,Prevention of 125I-NGF binding to PC12 cells,[2],did not show appreciable inhibition
same,Effect on conformation of NGF in protomer crosslinking,[3],did not appear to have an effect on the conformation
same,NGF Protomer Conformation (active/inactive),[3],inactive
same,Survival @ 50 pM NGF,"[4]; 100 μM, 50 pM NGF",15 ± 13 % control
same,Survival @ 1 nM NGF,"[4]; 100 μM, 1 nM NGF",23 ± 10 % control
same,Antagonism of NGF-dependent survival,[4],ability to antagonize the NGF-dependant survival
same,Toxicity (PC12 cell viability),[5],100 ± 19 % control
same,Receptor Selectivity (p75NTR/TrkA),[6],TrkA only
same,Blocking of NGF binding to TrkA and p75NTR in receptor crosslinking,[7],selective for blocking the binding of NGF to TrkA but did not prevent the binding of NGF to p75^NTR
"BR11: same amino acid composition as R11, except that the CVC domain has been moved to appear at the N-terminus (CVCCRASNPVESGC; disulfide 1-14, 3-4)",Inhibition of NGF-mediated neurite growth,[12],did not inhibit NGF-mediated neurite growth
same,Cross-linking of NGF promoters (NGF dimer disruption assay),[13],not effective in influencing the crosslinking of NGF promoters
